Experimental data from US6635648B2, “Combination therapy using sympathetic nervous system antagonists and endothelin antagonists” (Queen's University at Kingston, priority 2000, dated 2003).

Assays:
[1] = Vascular reactivity: depressor response to NO-mimetic sodium nitroprusside (SNP) infusion; type: in vivo, rat; details: for Change in Vascular Response to SNP: Table 3; for depressor response to SNP: treatment alone at maximal blockade (L-NAME 30 mg/kg), SNP 1-30 μg/kg/min i.v.; for depressor response to SNP in the presence of L-NAME: treatment combined with L-NAME 3 and 30 mg/kg
Description: (§1) Determination of MAP: Three days after surgery, MAP was recorded (PowerLab/8s DAS, ADInstruments, Milford, Mass.). […] An equilibration period of at least 1 hour was allowed prior to any experimentation to establish a steady baseline. […] Mean arterial pressure (MAP) and heart rate (HR) were calculated as an average over five minutes for steady state conditions and 10 seconds for transient drug responses.
(§2) Data Analysis: Dose responses to N^ω-nitro-L-arginine-methyl ester (L-NAME, Sigma, Mo.) in terazosin- or prazosin-treated animals vs control were compared using unpaired, two-tailed t-test for each dose. […] In all cases a p value less than 0.05 was considered to be statistically significant.
This set of experiments examined whether alpha-adrenoceptor antagonism and/or complete removal of α-signaling could also alter vascular reactivity to exogenous NO. […] Reactivity was then determined following minimal and maximal NOS blockade by administration of a low dose followed by a high dose of L-NAME (3 and 30 mg/kg L-NAME i.v., respectively). […] In these animals additional dose responses to each NO-donor were performed after initial alpha-adrenoceptor antagonism and before L-NAME treatment. Further assessment of the impact of removal of α1-adrenoceptor signaling was made through ganglionic blockade with hexamethonium (30 mg/kg i.v.). Down-stream sympathetic signaling is effectively abolished by completely blocking the ganglia with hexamethonium.

[2] = Mean arterial pressure (MAP) in conscious catheterised rats after drug treatment; type: in vivo, rat; details: for MAP after terazosin treatment: terazosin 2 mg/kg i.v., SB209670 treated animals (label SB209670) vs animals without SB209670 (label terazosin); for Δ MAP (from initial baseline; mmHg): Table 3, L-NAME 3 mg/kg in the triple combination
Description: Animals: Male Sprague-Dawley rats (250-300 g) from Charles River Laboratories (St. Constant, Quebec) were individually housed under conditions of 12-hour light/dark cycle at a room temperature of 22-24° C. Purina® rodent chow and tap water were provided ad libitum. Rats were housed for at least one day prior to catheter implantation and allowed a minimum of 3 days to recover from the surgery before any experiments. […] Experiments were performed in accordance with standards established by the Canadian Council of Animal Care.
Surgery: The surgical technique was based on that described by Thompson et al. (Hypertension. 20(6):809-815, 1992). In brief, rats were anaesthetized with Hypnorm®/Nersed® (1:2:1 ratio of Hypnorm®:H2O:Versed® at a dose rate of 3 ml/kg i.p.). […] An additional catheter sat loosely in the abdominal cavity for intra-peritoneal administration of drugs. All catheters were tunneled subcutaneously, exteriorized at the nape of the neck and sutured into place. The catheters were filled with heparin saline (50 IU/ml) and sealed at the exposed end.
as §1
The NOS antagonist L-NAME was administered in increasing doses (1,3,10,30 mg/kg i.v.). MAP was measured after each dose when pressure reached steady state (10 min).

[3] = Overshoot and rate of recovery of MAP following 30 second SNP depressor challenge; type: in vivo, rat; details: for Overshoot (mmHg) of MAP relative to control response: following SNP (10 μg/kg/min) depressor challenge, maximal blockade, 3 mg/kg L-NAME in TRZ combinations; for Rate of Recovery (mmHg/s): following SNP (30 μg/kg/min) depressor challenge, 10 second interval after onset of recovery; for Overshoot: Change vs Control: following SNP (10 mg/kg/min) depressor challenge; for Rate of Recovery: Change vs Control: following SNP (30 mg/kg/min) depressor challenge
Description: as §1
In Examples 2, 3 and 4, we used a 30 second infusion of SNP to induce a transient depressor response (less than 1 minute) in order to assess mechanisms involved in homeostatic adjustment, in each case comparing treatment to the respective control response (FIG. 8, Table 3). […] In contrast, after α1-adrenoceptor antagonism the response to the depressor challenge was altered such that there was a marked overshoot of MAP above baseline during the recovery phase. In some instances MAP took in excess of five minutes to return to baseline following the overshoot. […] This response was unchanged by NOS antagonism (FIG. 8b) and RAS inhibition (FIG. 8c).
In addition, we characterized the rate of recovery of MAP as determined by the upward slope of the arterial blood pressure trace during a 10 second interval immediately after the onset of recovery (Table 4). […] In contrast, the combination of alpha-blockade and NOS antagonism doubled the magnitude of the recovery slope.

[4] = compared with the placebo group; cited from earlier work
[5] = NO-selectivity of depressor responses before and after maximal NOS blockade with L-NAME; type: in vivo, rat; details: for Change in Depressor Response: after vs before 100 mg/kg L-NAME; for Δ MAP L-NAME 100 mg/kg (mmHg): depressor agent after maximal NOS blockade with 100 mg/kg L-NAME; for Δ MAP Control (mmHg): depressor agent before L-NAME
Description: as §1
Hypersensitivity to NO-mimetics following NOS blockade is shown to be the result of a specific interaction between ET and depressor agents that target the NO pathway. To confirm the specificity of this interaction, dose responses to a variety of depressor agents targeting both NO-dependent and NO-independent pathways were performed before and after maximal NOS blockade with 100 mg/kg L-NAME. One dose of each depressor agent that decreased MAP by approximately 10 mmHg was chosen for analysis. The agents compared were SNP ([…]; 30 s infusion), 8-bromo-cGMP (8-Br-cGMP; 3000 mg/kg/min; cumulative from 30, 100, 300, 1000, 3000 dose response, 2 min infusion, 3 min between doses), bradykinin (30 mg/kg/min; 30 s infusion), PGE1 ([…]; cumulative dose response, 20 min/dose) and INE (0.2 mg/kg/min; 30 s infusion).

[6] = Vascular reactivity: depressor response to NO-mimetic glyceryl trinitrate (GTN) infusion; type: in vivo, rat
Description: as §1, §2
NOS blockade hypertension also results in a hypersensitivity to NO-mimetics such as SNP and GTN. This set of experiments examined whether alpha-adrenoceptor antagonism and/or complete removal of α-signaling could also alter vascular reactivity to exogenous NO. Dose response curves to 30 second infusions of the NO-mimetics sodium nitroprusside (1-30 μg/kg/min SNP i.v.) or glyceryl trinitrate (25-1600 μg/kg/min GTN i.v.) were generated in control animals to determine normal vasodilatory reactivity to exogenous NO. Reactivity was then determined following minimal and maximal NOS blockade by administration of a low dose followed by a high dose of L-NAME (3 and 30 mg/kg L-NAME i.v., respectively). […] In these animals additional dose responses to each NO-donor were performed after initial alpha-adrenoceptor antagonism and before L-NAME treatment. Further assessment of the impact of removal of α1-adrenoceptor signaling was made through ganglionic blockade with hexamethonium (30 mg/kg i.v.). Down-stream sympathetic signaling is effectively abolished by completely blocking the ganglia with hexamethonium. After establishment of a control dose response to SNP, maximal ganglionic blockade was induced and MAP was allowed to reach a steady state. The vascular reactivity to SNP was reassessed after hexamethonium alone and following both a low then high dose of L-NAME (3 and 30 mg/kg L-NAME i.v., respectively).

[7] = treatment alone at maximal blockade (L-NAME 30 mg/kg), GTN 25-1600 μg/kg/min i.v.

SMILES	Overshoot (mmHg) of MAP relative to control response [3]	Rate of Recovery (mmHg/s) [3]	Overshoot: Change vs Control [3]	Rate of Recovery: Change vs Control [3]	Change in Depressor Response [5]	Δ MAP L-NAME 100 mg/kg (mmHg) [5]	Δ MAP Control (mmHg) [5]	Change in Vascular Response to SNP [1]	depressor response to SNP [1]	Δ MAP (from initial baseline; mmHg) [2]	also measured
CCCOc1ccc2c(c1)[C@@H](c1ccc(OC)cc1OCC(=O)O)[C@H](C(=O)O)[C@H]2c1ccc2c(c1)OCO2 [SB209670]	0.5 ± 4.98 mmHg	1.4 ± 1.00 mmHg/s	←→	←→	–	–	–	–	–	–	enhanced SNP response with terazosin combined with moderate NOS antagonism ([1]; terazosin 2 mg/kg + L-NAME 3 mg/kg + SB209670): prevented; dose response to SNP after terazosin treatment ([1]; terazosin 2 mg/kg i.v. in animals receiving SB209670): significantly blunted; effect on MAP vs control ([2]; SB209670 alone): did not lower MAP significantly; MAP ([2]; SB209670 i.v. bolus then 100 μg/kg/min infusion, alone, control 98.29±6.43): 90.41±4.36 mmHg; MAP after terazosin treatment [2]: 51.83±4.02 mmHg; overshoot of MAP in treatment groups demonstrating overshoot ([3]; co-administration with alpha-adrenoceptor antagonist with or without NOS antagonist): abolished
COc1cc2nc(N3CCN(C(=O)c4ccco4)CC3)nc(N)c2cc1OC [prazosin]	–	–	–	–	–	–	–	–	–	–	lowering of MAP after alpha-adrenoceptor antagonist ([2]; prazosin 3 mg/kg i.v. or terazosin 2 mg/kg i.v., steady state, conscious rats): 36.35±13.96 mmHg; mortality among patients with chronic congestive heart failure [4]: the same
O=[N+]([O-])O[C@H]1CO[C@H]2[C@@H]1OC[C@H]2O[N+](=O)[O-] [isosorbide dinitrate]	–	–	–	–	–	–	–	–	–	–	mortality among patients with chronic congestive heart failure [4]: reduced significantly
Nc1nc2c(nc(Br)n2[C@@H]2O[C@@H]3COP(=O)(O)O[C@H]3[C@H]2O)c(=O)[nH]1 [8-Br-cGMP, 8-bromo-cyclic-GMP]	–	–	–	–	↑↑	−26.57 ± 6.76 mmHg	−0.67 ± 2.83 mmHg	–	–	–	–
COc1cc2nc(N3CCN(C(=O)C4CCCO4)CC3)nc(N)c2cc1OC (stereo not drawn) [Terazosin, terazosin]	45 ± 5.19 mmHg	1.2 ± 0.42 mmHg/s	↑	←→	–	–	–	↑	enhanced	−28 ± 18.5 mmHg	depressor response to SNP in the presence of L-NAME [1]: enhanced relative to control; depressor response to GTN ([6]; terazosin combined with moderate NOS blockade (3 mg/kg L-NAME)): significantly enhanced; depressor response to GTN [6, 7]: only statistically significant at the highest dose of GTN; decrease in MAP ([2]; losartan + enalaprilat 30 mg/kg i.p. 1:1 vs terazosin alone): 28.09±18.49; MAP after terazosin treatment [2]: 77.37±17.48 mmHg
CC(C)NCC(O)c1ccc(O)c(O)c1 (stereo not drawn) [Isopropyl-norepinephrine (INE), Isopropyl-norepinephrine]	–	–	–	–	←→	−10.52 ± 4.04 mmHg	−9.42 ± 7.38 mmHg	–	–	–	–
C[N+](C)(C)CCCCCC[N+](C)(C)C [Hexamethonium, hexamethonium]	–	–	–	–	–	–	–	↑	induced an almost identical pattern of hypersensitivity	−18 ± 10.0 mmHg	depressor response to SNP in the presence of L-NAME [1]: further enhanced
COC(=O)[C@@H](N)CCCNC(=N)N[N+](=O)[O-] [L-NAME, N^ω-nitro-L-arginine-methyl ester]	−1.6 ± 3.68 mmHg	1.2 ± 0.73 mmHg/s	←→	←→	–	–	–	↑	enhanced	36 ± 11.1 mmHg	vascular reactivity to GTN ([6]; moderate NOS blockade, 3 mg/kg L-NAME alone): did not produce a significant change; depressor response to GTN [6, 7]: enhanced
CCCCC[C@H](O)/C=C/[C@H]1[C@H](O)CC(=O)[C@@H]1CCCCCCC(=O)O [PGE1]	–	–	–	–	←→	−15.51 ± 9.74 mmHg	−15.21 ± 5.72 mmHg	–	–	–	–
CCCCc1nc(Cl)c(CO)n1Cc1ccc(-c2ccccc2-c2nn[nH]n2)cc1 [losartan]	–	–	–	–	–	–	–	–	failed to increase the sensitivity	–	–
